We go through 3 compounds from patent publication US20110020434A1, “NANOPARTICLE ARSENIC-PLATINUM COMPOSITIONS” (priority 2005, published 2011).

As usually defined, the IC50 is the concentration needed to halve the response being measured.

Assay [1] concerns IM-9 (human lymphoblast B cells). In kind it is cell-based. The conditions noted are these: 48 h drug treatment. An excerpt: (§1) Cell culture. SU-DHL-4 (human lymphoma B cells) was from the Deutsche Sammlung von Mikroorganismen and Zellkulturen GmbH (DSMZ, Braunschweig, Germany). MM.1S (human multiple myeloma B cells) was previously established in the laboratory of Prof. Steven. T. Rosen (Robert H. Lurie Comprehensive Cancer Center, Northwestern University). IM-9 (human lymphoblast B cells), MDA-MB-231 (human breast adenocarcinoma cells), OVCAR-3 (human ovary adenocarcinoma cells), KB (human nasopharyngeal epidermal carcinoma cells, FR), and MCF-7 (human breast carcinoma cells, FR^-) (Sonvico et al. J. Drug Del. Sci. Tech. 2005, 15, 407-410, Chen et al. Mol. Cancer Ther. 2009, in press., herein incorporated by reference in their entireties) were purchased from ATCC (Manassas, Va., USA). All Cells were maintained at 37° C. in an incubator with 5% CO2 and harvested in the exponential phase of growth. SU-DHL-4, IM-9, and MM.1S cells were cultured in RPMI-1640 supplemented with 10% FBS, 2 mM glutamine, 100 units/mL penicillin-streptomycin, and 2.5 μg/mL Amphotericin B. MDA-MB-231 cells were cultured in DMEM/F12 supplemented with 5% cds-FBS, 2 mM glutamine, 100 units/mL penicillin-streptomycin, and 0.1% human insulin solution. OVCAR-3 cells were cultured in RPMI-1640 supplemented with 20% FBS, 100 units/mL penicillin-streptomycin, and 0.1% human insulin solution. MCF-7 cells was cultured in EMEM supplemented with 10% FBS, 2 mM glutamine, 100 units/mL penicillin-streptomycin and 2.5 μg/mL Amphotericin B. KB cells were cultured in EMEM supplemented with 10% FBS and 50 units/mL penicillin-streptomycin. For folate-targeting experiments, KB cells were transferred into folate-deficient RPMI-1640 medium for more than one week before each experiment (Lee et al. J. Biol. Chem. 1994, 269, 3198-3204, herein incorporated by reference in its entirety).
(§2) The MTS assay is one of most high throughput and economical assays for detecting viability of cancer cells. Briefly, SU-DHL-4 and IM-9 (40,000 cells/mL), and MM.1S (250,000 cells/mL) were treated with drugs and plated in quadruplicate (100 uL/well) onto 96-well plates. For MDA-MB-231 and OVCAR-3, 20,000 cells/mL were plated in quadruplicate (100 uL/well) onto 96-well plates, incubated overnight and then treated with drugs. After incubation for the indicated period at 37° C., the MTS/PMS solution (20 μL/well) was added to each well and the plates were further incubated for 4 h at 37° C. before reading the absorbance at 490 nm. Cell growth rates were expressed as a function of drug concentration on a logarithmic scale. The IC50 values (the drug concentration required for 50% inhibition of cell growth) were determined by fitting to a sigmoidal dose-response curve using Origin 6.0 software (Microcal Software, Inc., Northampton, USA). In the case of the 1.5 h (SEE FIG. 8B) or 2 h (SEE FIG. 9B) time periods, the cells treated with drugs were first incubated for 1.5 h or 2 h at 37° C., then washed twice with PBS to remove un-associated drugs or liposomes, and further incubated up to 48 h (FIG. 8b) or 72 h (FIG. 9b) in drug-free medium, followed by the MTS assay.

Assay [2] relates to MDA-MB-231 (human breast adenocarcinoma cells). The format is cell-based. The conditions noted are these: 72 h drug treatment.
Source text: as §1, §2

Assay [3] concerns SU-DHL-4 (human lymphoma B cells). In kind it is cell-based. As to conditions: 48 h drug treatment.
Source text: as §1, §2

Assay [4] concerns OVCAR-3 (human ovary adenocarcinoma cells). Kind of assay: MTS cell proliferation cytotoxicity assay. As to conditions: 72 h drug treatment. In kind it is cell-based.
Source text: as §1, §2

Assay [5] relates to KB (FR+) human nasopharyngeal epidermal carcinoma cells. Kind of assay: Guava ViaCount cytotoxicity assay, folate-targeted liposomes. In kind it is cell-based.
Source text: as §1
(§3) The in vitro cytotoxicities of folate-targeted liposomes against KB and MCF-7 cells were determined by Guave ViaCount assay (Stearns et al. Cancer Res. 2006, 66, 673-681, Donaldson et al. Cell Death Differ 2009, 16, 125-138, herein incorporated by reference in their entireties) (The MTS assay is not applicable in this case because the folate moiety interferes with the reactions of MTS/PMS agents and seriously impairs accuracy of cell viability (Chen et al. Mol. Cancer Ther. 2009, in press.)). Cells were first plated in 48-well plates at a density of 30,000-60,000 cells/mL, 0.2 mL per well. After 24 h at 37° C., the media were replaced with drug solutions. Cells were thus incubated with drugs continuously for 72 h, or exposed to drugs for 3 h at 37° C., then washed with PBS ×2 and further incubated up to 72 h in drug-free medium. The same Pt concentrations of aqua-cisPt were used as in f-NB(As, Pt). Cell viability was determined by Guave ViaCount (Stearns et al. Cancer Res. 2006, 66, 673-681, Donaldson et al. Cell Death Differ 2009, 16, 125-138, herein incorporated by reference in their entireties), using a Guava EasyCyte Mini flow cytometer (Guava Technologies, Hayward, Calif.). Cells, after released from plates by trypsinization (using 0.05% trypsin/0.02% EDTA), were stained with the Guava Viacount agent, which contains two fluorescent dyes, one cell permeable and one impermeable. This allows viable and dead cell numbers to be accurately determined by Guava Viacount software. Cell growth rates were expressed as a function of drug concentration on a logarithmic scale. The IC50 values (the drug concentration required for 50% inhibition of cell growth) were determined by fitting to a sigmoidal dose-response curve using Origin 6.0 (Microcal Software, Inc., Northampton, USA) (SEE FIGS. 12F-G and Table 3).

The subject of assay [6] is MCF-7 (FR−) human breast carcinoma cells. The description is as above. The format is cell-based.
Source text: as §1, §3

The next assay has as its system MCF-7 (FR−) cells. In words: Quantitative cellular drug uptake by ICP-MS. The format is cell-based, human. The conditions noted are these: 3 h at 37° C.
Source text: as §1, with “OVCAR-3 cells were cultured in RPMI-1640 supplemented with 20% FBS, 100 units/mL penicillin-streptomycin, and 0.1% human insulin solution. MCF-7 cells was cultured in EMEM supplemented with 10% FBS, 2 mM glutamine, 100 units/mL penicillin-streptomycin and 2.5 μg/mL Amphotericin B. KB cells were cultured in EMEM supplemented with 10% FBS and 50 units/mL penicillin-streptomycin. For folate-targeting experiments, KB cells were transferred into folate-deficient RPMI-1640 medium for more than one week before each experiment (Lee et al. J. Biol. Chem. 1994, 269, 3198-3204, herein incorporated by reference in its entirety).” left out
Cells were plated, 24 h before each experiment, in 6-well plates with 500,000 cells per well. […] Cell-associated drug was expressed as As and Pt atoms per cell (SEE FIG. 12E and Table 4.

The subject of assay [7] is MM.1S (human multiple myeloma B cells). In words: MTS cell proliferation cytotoxicity assay. The format is cell-based. The conditions noted are these: 72 h drug treatment.
Source text: as §1, §2

Assay [8] has as its system human lymphoma cell line SU-DHL-4 (CD20-positive). Kind of assay: MTS cytotoxicity assay of liposomal Ni-arsenic and Rituxan conjugate. As to conditions: 72 h (three days) at 37° C.; read-out: IC50 (arsenic level), SU-DHL-4. The format is cell-based. The procedure:
The human lymphoma B cell line of SU-DHL-4 (CD20-positive) was obtained from the American Type Culture Collection (Rockville, MD, USA). Cells were cultured in RPMI 1640 (Invitrogen Corporation) supplemented with 10% fetal bovine serum, 2 mM glutamine, 100 units/mL penicillim, 100 ug/mL streptomycin, and 2.5 ug/mL fungizone. Cells were maintained at 37° C. in an incubator with 5% CO2 and harvested in the exponential phase of growth.
Cells (25,000 cells/mL) were treated with various drugs and plated in 96-well plates. After incubation for 72 h at 37° C., the MTS solution (20 uL/well) was added to each well and the plates were further incubated for 4 h at 37° C. before the absorbance readings at 490 nm.
In a parallel experiment, SU-DHL-4 cells (100,000 cells/mL) were treated with various drugs and plated in 96-well plates. After incubation at 37° C. for 20 min, cells were washed twice using 200 uL/well of PBS and refilled with 100 uL/well of fresh medium and incubated for an additional 71.6 h. The MTS solution (20 uL/well) was added to each well and the plates were further incubated for 4 h at 37° C. before taking the absorbance readings at 490 nm.

Where two headings read alike, the source gives them in different places.

With `CC(=O)[O-].CC(=O)[O-].N.N.O.O.[Pt+2]` [Aqua-cisPt, [cis-(NH3)2Pt(OH2)2](OAc)2], the IC50 in assay [1] (based on Pt concentration) is 1 ± 0.01 µM; in [2] (based on Pt concentration), 17.9 µM; in assay [3] (based on Pt concentration), 5.5 µM; in assay [4] (based on Pt concentration), 2.6 ± 0.8 µM; in assay [5] (continuous 72 h incubation, Pt concentration, read-out: KB (FR^+), IC50 (μM), 72 h) it was 1.3 ± 0.2 µM; in [5] (read-out: KB (FR^+), IC50 (μM), 3 h, 3 h exposure, washed, drug-free medium up to 72 h, Pt concentration), 9.7 ± 2.5 µM. Also, the IC50 in assay [6] (continuous 72 h incubation, Pt concentration, read-out: MCF-7 (FR^−), IC50 (μM), 72 h) turned out to be 12.2 ± 0.4 µM; in [6] (read-out: MCF-7 (FR^−), IC50 (μM), 3 h, 3 h exposure, washed, drug-free medium up to 72 h, Pt concentration), 88.9 ± 14.4 µM. The “Cellular uptake, MCF-7 (FR^−), Pt” value in the assay on MCF-7 (FR−) cells (10 μM arsenic / 8 μM Pt) is 0.24 ± 0.07 ×10^7 atoms/cell.

On to `N.N.[Cl][Pt][Cl]` [CisPt, cis-diamine dichloroplatinum(II)], for which the IC50 in assay [1] (based on Pt concentration) stood at 0.6 ± 0.2 µM; in [2] (based on Pt concentration) it was 14 µM; in assay [3] (based on Pt concentration) it was 3.5 µM; in assay [7] (based on Pt concentration), 1.43 µM; in assay [4] (based on Pt concentration), 2 ± 0.01 µM.

Arsenic trioxide [As2O3]: the concentration for half-maximal inhibition (IC50) in assay [1] (based on As concentration) amounted to 2.1 ± 0.03 µM; in assay [2] (based on As concentration) it was 10 µM; in [3] (based on As concentration), 3.7 µM; in assay [7] (based on As concentration), 0.58 µM; in assay [4] (based on As concentration) it was 2.7 ± 1.1 µM; in [5] (continuous 72 h incubation, As concentration, read-out: KB (FR^+), IC50 (μM), 72 h), 5.2 ± 1 µM. For the same compound, the 50% inhibitory concentration (IC50) in assay [5] (read-out: KB (FR^+), IC50 (μM), 3 h, 3 h exposure, washed, drug-free medium up to 72 h, As concentration) is more than 200 µM; in assay [6] (continuous 72 h incubation, As concentration, read-out: MCF-7 (FR^−), IC50 (μM), 72 h), 6.9 ± 1.7 µM; in assay [6] (read-out: MCF-7 (FR^−), IC50 (μM), 3 h, 3 h exposure, washed, drug-free medium up to 72 h, As concentration), 63.7 ± 22.3 µM; in assay [8], 1.45 µM. In the assay with MCF-7 (FR−) cells (10 μM arsenic), the “Cellular uptake, MCF-7 (FR^−), As” value was 9.4 ± 2.3 ×10^7 atoms/cell.
